From publication PMC7413516, “Antidepressant-like activity and safety profile evaluation of 1H-imidazo[2,1-f]purine-2,4(3H,8H)-dione derivatives as 5-HT1A receptor partial agonists” (PLoS ONE, 2020)
“And” between values parts separate entries of the source, which are not always exact repeats. Equal values may be shown once.

Legend:
5-HT1AR = test system: 5-HT1AR; parameters: method as in PMID 27353547; conditions: CHO-K1 cells, Ca2+ mobilisation; ref [8]; read-out: Kb, 5-HT1AR antagonist; cited from earlier work
[1] = test system: adrenergic α1 receptors (α1R); experiment: Pressor response to methoxamine in anesthetized normotensive rats (adrenolytic activity); type: in vivo, Wistar rats; conditions: 10 mg/kg, 30 min prior to methoxamine 150 μg/kg
Method: In a separate series of experiments on anesthetized normotensive rats, the effect of studied compounds on the pressor response to methoxamine (Sigma Aldrich) (150 μg/kg) was investigated. Pressor responses to methoxamine injected intravenously were measured before and 30 min after the administration of the tested compound. The amplitudes of the pressure values were measured in 4 independent experiments.

[2] = Body weight measurement in the 17-day experiment; type: in vivo, Swiss albino mice; conditions: for body weight Mean / body weight: mouse, 0.625 mg/kg
Method: (§1) The Swiss albino mice were used in the experiment. AZ-853 and AZ-861 were injected once daily for 16 consecutive days. On the 1st and 15th day the administration of the compounds, 18-h spontaneous animal activity was registered (see below). FST, as described earlier, was performed on the 14th day just before the next treatment. To ensure that the effects observed in FST are not the result of increased motility of animals, on the 13th day, just before the next administration, the locomotor activity was measured as described earlier, from 2 to 6 min after test start, i.e. in the period identical to the duration of FST. Blood and organ collection was performed on the 17th day at 24 h after the last dose and fasting.
(§2) The body weight was measured daily immediately prior to administration of the drugs. On the 17th day, the blood was collected from the Swiss albino mice sacrificed by decapitation 20 min after i.p. administration of heparin (2500 units/mouse) and then centrifuged at 600 × g (15 min, 4°C) to separate plasma. The liver, heart, and kidney were also collected and weighed.

[3] = molecular target: serotonergic 5-HT1A receptor (5-HT1AR); parameters: method as in PMID 27353547; conditions: ref [8]; cited from earlier work
[4] = Plasma glucose, triglyceride and cholesterol levels after repeated administration; type: in vivo, Swiss albino mice; conditions: mice, AZ-853 0.625, AZ-861 1.25 mg/kg b.w./day
Method: as §1
Blood samples were collected from the Swiss albino mice 24 h after the last administration of the tested compounds or vehicle. To determine glucose, cholesterol and triglyceride levels in the plasma, standard enzymatic spectrophotometric tests (Biomaxima S.A. Lublin, Poland) were used. In the presence of appropriate enzyme, the substrate was converted to a colored compound. Absorbance was measured at a wavelength of 500 nm. To determine alanine aminotransferase (ALAT) or γ-glutamyl transpeptidase (γ-GTP) activities in the plasma, the standard enzymatic spectrophotometric test (Biomaxima S.A.) was used. Absorbance was measured at 340 nm (ALAT) or 405 nm (γ-GTP).

PDE4B = test system: PDE4B; parameters: method as in PMID 27353547; conditions: in vitro, bioluminescent detection system; ref [8]; cited from earlier work
human 5-HT1AR = molecular target: T1, human 5-HT1AR (Homo sapiens, UniProt P08908); experiment: β-Arrestin recruitment (Tango LiveBLAzer, HTR1A-bla U2OS cells)
T1 sequence (P08908 1-422): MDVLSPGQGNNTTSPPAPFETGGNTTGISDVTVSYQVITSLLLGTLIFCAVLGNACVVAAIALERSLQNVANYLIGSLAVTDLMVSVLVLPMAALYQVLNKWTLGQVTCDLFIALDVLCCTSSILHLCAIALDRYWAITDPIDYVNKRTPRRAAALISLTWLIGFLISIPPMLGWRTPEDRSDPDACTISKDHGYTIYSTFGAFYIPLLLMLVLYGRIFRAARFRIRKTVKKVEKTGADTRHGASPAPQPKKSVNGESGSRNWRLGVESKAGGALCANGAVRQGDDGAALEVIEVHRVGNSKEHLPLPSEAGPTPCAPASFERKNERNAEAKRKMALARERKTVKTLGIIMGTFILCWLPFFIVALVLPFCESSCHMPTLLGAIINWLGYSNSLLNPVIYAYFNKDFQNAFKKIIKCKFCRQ
Method: Cells were cultured according to manufacturer’s instruction. […] This parental cell line stably expresses a beta-arrestin/TEV protease fusion protein and the beta-lactamase reporter gene under the control of a UAS response element. The Tango™ HTR1A-bla U2OS cells have been functionally validated for a response to 5-CT. This cell line tested negative for mycoplasma.
The HTR1A-bla U2OS receptor cells containing the human 5-HT1AR linked to a TEV protease site and a Gal4-VP16 transcription factor were tested for recruitment of β-arrestin. […] The recruitment of β-arrestin were tested using the Tango LiveBLAzer assay kit according to the manufacturer’s instruction (Life Technologies). The assay plate was measured in FLUOstar Optima, a multifunction plate reader (BMG Lab Tech).

[5] = molecular target: T2, histaminic H1 receptor (H1R) (Cavia porcellus, UniProt P31389); experiment: Smooth muscle relaxant assay: histamine-induced contraction of isolated guinea pig ileum; conditions: isolated guinea pig small intestine, histamine 2 μM
T2 construct: from tissue; host or cells: isolated guinea pig ileum
T2 sequence (P31389 whole entry): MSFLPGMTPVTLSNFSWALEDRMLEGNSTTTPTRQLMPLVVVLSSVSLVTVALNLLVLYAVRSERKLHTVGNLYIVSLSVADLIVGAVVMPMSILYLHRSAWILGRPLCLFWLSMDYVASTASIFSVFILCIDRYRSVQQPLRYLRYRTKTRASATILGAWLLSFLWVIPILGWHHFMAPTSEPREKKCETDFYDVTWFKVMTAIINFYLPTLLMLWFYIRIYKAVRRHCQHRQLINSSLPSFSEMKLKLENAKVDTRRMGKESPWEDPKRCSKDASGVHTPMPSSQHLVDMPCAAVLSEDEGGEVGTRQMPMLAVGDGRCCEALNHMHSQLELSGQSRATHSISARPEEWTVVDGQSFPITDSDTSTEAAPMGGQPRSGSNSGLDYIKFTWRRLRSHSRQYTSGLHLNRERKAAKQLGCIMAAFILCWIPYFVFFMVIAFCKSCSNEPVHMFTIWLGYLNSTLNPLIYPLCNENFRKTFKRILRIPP
Method: The experiment was carried out according to the method described previously. Male guinea pigs were sacrificed by cervical dislocation. The ileum was rapidly removed, rinsed, and cut into segments of 1.5–2.0 cm length. The tissues were mounted on a jacketed 20 mL organ bath (Tissue Organ Bath System; 750 TOBS, DMT, Denmark) filled with Krebs’s solution (NaCl 120 mM, KCl 5.6 mM, MgCl2 2.2 mM, CaCl2 2.4 mM, NaHCO3 19 mM, glucose 10 mM). The bath was aerated with 95 % O2/5 % CO2 and heated at 37°C. During the 60-min incubation period, the organ was rinsed 4 times with fresh Krebs’s buffer, and the tissues were also pre-stimulated by 60 mM KCl solution. The submaximal contraction induced by histamine (Sigma Aldrich) (2 μM) and carbachol (Sigma Aldrich) (100 μM) was evaluated in the presence and absence of the tested compounds. Amplitudes of contraction values were measured in 4 independent experiments.

[6] = molecular target: serotonergic 5-HT7 receptor (5-HT7R); parameters: method as in PMID 27353547; conditions: ref [8]; cited from earlier work
[7] = Liver, kidney and heart weight after repeated administration; type: in vivo, Swiss albino mice; conditions: mice, AZ-853 0.625 mg/kg, AZ-861 1.25 mg/kg
Method: as §1, §2

PDE10A = test system: PDE10A; parameters: method as in PMID 27353547; conditions: in vitro, bioluminescent detection system; ref [8]; cited from earlier work

plasma level of total cholesterol vs. control [4]: increased significantly | plasma level of triglycerides vs. control [4]: increased significantly | EC50 (human 5-HT1AR): 4.17 nM | Emax (human 5-HT1AR; U2OS, read-out: Emax (%) ± SEM, agonist mode): 93 ± 1.7% | increased potency as compared to 5-HT (human 5-HT1AR; β-arrestin recruitment): 95 fold | inhibition at 1 µM [5]: 94.8%
SMILES: Cn1c(=O)c2c(nc3n(CCCCN4CCN(c5ccccc5F)CC4)ccn23)n(C)c1=O [AZ-853, 8-(4-(4-(2-fluorophenyl)piperazin-1-yl)butyl)-1,3-dimethyl-1H-imidazo[2,1-f]purine-2,4(3H,8H)-dione]
Kb (5-HT1AR): 2.7 nM | mean reduction of blood pressure vs. methoxamine alone [1]: 95.5 mmHg | effect on body weight ([2]; mice, repeated i.p. once daily, AZ-853 0.625 mg/kg (from 10th day), AZ-861 1.25 mg/kg (2nd, 3rd, 4th day)): slight but significant increase in body weight | body weight Mean ([2]; day 1, group mean): 23.45 g | body weight ([2]; day 1, individual mouse): 24.7 g (2×) and 22.9 g and 21.9 g and 25.0 g and 23.8 g and 23.0 g and 21.7 g (2×) and 25.1 g | body weight Mean ([2]; day 2, group mean): 23.55 g | body weight ([2]; day 2, individual mouse): 24.9 g and 23.5 g and 24.2 g and 22.6 g and 24.5 g and 23.3 g and 22.7 g and 21.2 g and 22.0 g and 26.6 g | body weight Mean ([2]; day 3, group mean): 23.90 g | body weight ([2]; day 3, individual mouse): 25.0 g (2×) and 24.0 g (3×) and 23.0 g (2×) and 22.0 g (2×) and 27.0 g | body weight Mean ([2]; day 4, group mean): 23.70 g | body weight ([2]; day 4, individual mouse): 24.0 g (4×) and 25.0 g and 22.0 g (3×) and 23.0 g and 27.0 g | body weight Mean ([2]; day 5, group mean): 23.80 g | body weight ([2]; day 5, individual mouse): 23.3 g and 23.8 g and 24.9 g and 22.7 g and 24.6 g and 23.7 g and 23.6 g and 22.2 g and 22.8 g and 26.4 g | body weight Mean ([2]; day 6, group mean): 23.85 g | body weight ([2]; day 6, individual mouse): 24.2 g and 23.2 g and 24.4 g and 22.9 g and 24.7 g and 23.9 g and 23.5 g and 21.9 g and 23.4 g and 26.4 g | body weight Mean ([2]; day 7, group mean): 24.10 g | body weight ([2]; day 7, individual mouse): 24.0 g (4×) and 25.0 g (2×) and 23.0 g (3×) and 26.0 g | body weight Mean ([2]; day 8, group mean): 24.50 g | body weight ([2]; day 8, individual mouse): 25.0 g (2×) and 26.0 g (3×) and 23.0 g (3×) and 24.0 g (2×) | body weight Mean ([2]; day 9, group mean): 25.00 g | body weight ([2]; day 9, individual mouse): 25.0 g (2×) and 26.0 g (2×) and 27.0 g (2×) and 23.0 g (2×) and 24.0 g (2×) | body weight Mean ([2]; day 10, group mean): 25.14 g | body weight ([2]; day 10, individual mouse): 25.4 g and 24.9 g and 26.7 g and 23.8 g and 25.2 g and 24.3 g and 24.0 g and 23.7 g and 25.7 g and 27.7 g | body weight Mean ([2]; day 11, group mean): 24.68 g | body weight Mean ([2]; day 12, group mean): 25.52 g | body weight Mean ([2]; day 13, group mean): 25.54 g | body weight Mean ([2]; day 14, group mean): 25.91 g | body weight Mean ([2]; day 15, group mean): 26.09 g | Ki [3]: 0.6 nM | plasma glucose level vs. control [4]: did not influence the plasma glucose level | PDE4B inhibitory activity (PDE4B): did not induce PDE4B and PDE10A inhibitory activity | Ki [6]: 508 nM | effect on liver, kidney and heart weight (% of total body weight) [7]: neither AZ-853 (0.625 mg/kg) nor AZ-861 (1.25 mg/kg) influenced | PDE10A inhibitory activity (PDE10A): did not induce PDE4B and PDE10A inhibitory activity
